The text below walks through data of ChEMBL document CHEMBL1201862, “PubChem BioAssay data set” (2004).

Active and inactive are the calls of the source.

Experiment [1] can be described thus: NIH-3T3 fibroblast cytotoxicity, dose response, cytotoxicity control, cell-based, fluorescence, Alamar Blue, secondary assay (AID 2327).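 Also: NIH-3T3 mouse fibroblasts cultured with fluconazole at 8 µg/mL.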 It is filed as functional. For orientation: The colour change of resazurin is a common sign of viable cells or microbes.
The next experiment deals with T1, Caspase-3 (Homo sapiens, UniProt P42574).
T1 sequence (P42574 whole entry): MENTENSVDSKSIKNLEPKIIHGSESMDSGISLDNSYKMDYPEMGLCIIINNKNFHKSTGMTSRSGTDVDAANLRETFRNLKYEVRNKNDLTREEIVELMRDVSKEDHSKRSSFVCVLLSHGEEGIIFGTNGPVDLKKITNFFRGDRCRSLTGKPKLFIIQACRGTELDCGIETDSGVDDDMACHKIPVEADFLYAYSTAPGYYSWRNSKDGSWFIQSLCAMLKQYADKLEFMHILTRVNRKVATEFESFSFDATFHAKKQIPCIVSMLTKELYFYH
In kind it is functional.

Experiment [2] addresses T2, Heat shock factor protein 1 (Mus musculus, UniProt P38532).
T2 sequence (P38532 whole entry): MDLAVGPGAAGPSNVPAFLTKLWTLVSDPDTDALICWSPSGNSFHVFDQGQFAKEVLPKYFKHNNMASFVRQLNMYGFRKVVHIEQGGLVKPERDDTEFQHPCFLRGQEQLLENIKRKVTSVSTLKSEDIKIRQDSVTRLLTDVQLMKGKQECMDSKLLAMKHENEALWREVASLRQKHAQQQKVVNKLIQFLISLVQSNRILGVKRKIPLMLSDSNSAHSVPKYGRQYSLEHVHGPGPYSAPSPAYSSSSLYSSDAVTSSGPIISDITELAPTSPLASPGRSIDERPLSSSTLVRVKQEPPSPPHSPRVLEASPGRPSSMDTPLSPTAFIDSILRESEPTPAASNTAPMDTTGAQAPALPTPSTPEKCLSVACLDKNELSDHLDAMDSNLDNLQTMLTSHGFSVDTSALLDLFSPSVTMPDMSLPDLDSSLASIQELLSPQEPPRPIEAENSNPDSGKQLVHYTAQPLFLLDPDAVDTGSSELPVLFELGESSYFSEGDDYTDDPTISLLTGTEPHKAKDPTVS
Description: enhancement of HSF1-driven luciferase signal – cell-based, NIH3T3, luminescence, dose retest, confirmation (AID 435004).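 Also: stress induced by proteasome inhibitor MG132 added 30 min after compound; luciferase reporter driven by HSF1 response element in NIH3T3 cells; actives raise luminescence as potentiators of the MG132 stress response.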 In kind it is functional.

Experiment [3] concerns the target T3, Replicative DNA helicase DnaB (Mycobacterium tuberculosis, UniProt P9WMR3).
T3 sequence (P9WMR3 whole entry): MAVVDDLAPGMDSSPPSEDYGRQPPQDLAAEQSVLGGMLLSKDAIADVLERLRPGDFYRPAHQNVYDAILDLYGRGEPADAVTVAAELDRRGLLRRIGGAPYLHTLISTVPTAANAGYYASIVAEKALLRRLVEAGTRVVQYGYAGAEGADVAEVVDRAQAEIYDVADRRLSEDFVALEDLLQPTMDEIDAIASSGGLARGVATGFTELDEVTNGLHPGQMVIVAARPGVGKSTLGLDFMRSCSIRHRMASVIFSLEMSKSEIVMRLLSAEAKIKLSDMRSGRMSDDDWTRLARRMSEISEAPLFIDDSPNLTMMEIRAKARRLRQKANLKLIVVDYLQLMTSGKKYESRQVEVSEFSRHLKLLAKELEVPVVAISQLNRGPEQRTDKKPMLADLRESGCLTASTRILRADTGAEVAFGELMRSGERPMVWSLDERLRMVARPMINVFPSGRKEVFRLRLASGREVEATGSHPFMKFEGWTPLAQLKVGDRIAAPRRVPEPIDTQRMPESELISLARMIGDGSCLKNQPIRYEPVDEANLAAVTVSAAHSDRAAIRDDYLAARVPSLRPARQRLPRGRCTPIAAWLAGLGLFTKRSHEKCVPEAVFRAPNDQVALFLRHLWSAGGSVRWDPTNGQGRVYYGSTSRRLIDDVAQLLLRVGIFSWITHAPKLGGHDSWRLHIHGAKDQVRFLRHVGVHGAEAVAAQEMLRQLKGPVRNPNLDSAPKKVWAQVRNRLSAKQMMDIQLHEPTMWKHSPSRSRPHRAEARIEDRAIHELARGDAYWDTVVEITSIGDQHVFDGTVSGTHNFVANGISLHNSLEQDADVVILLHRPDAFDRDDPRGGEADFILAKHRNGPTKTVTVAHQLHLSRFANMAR
Description: DnaB intein splicing inhibitors, dose response, biochemical, cell-free fluorescence (AID 449749). In kind it is functional.

A further experiment relates to Vero. The experiment is described as follows: viability of Vero cells under compound – cytotoxicity control for flavivirus capping enzyme inhibitors (AID 588742). The settings on record: Chlorocebus sabaeus. It is filed as functional.
The target in another experiment is T4, Protein RecA (Mycobacterium tuberculosis, UniProt P9WHJ3).
T4 sequence (P9WHJ3 whole entry): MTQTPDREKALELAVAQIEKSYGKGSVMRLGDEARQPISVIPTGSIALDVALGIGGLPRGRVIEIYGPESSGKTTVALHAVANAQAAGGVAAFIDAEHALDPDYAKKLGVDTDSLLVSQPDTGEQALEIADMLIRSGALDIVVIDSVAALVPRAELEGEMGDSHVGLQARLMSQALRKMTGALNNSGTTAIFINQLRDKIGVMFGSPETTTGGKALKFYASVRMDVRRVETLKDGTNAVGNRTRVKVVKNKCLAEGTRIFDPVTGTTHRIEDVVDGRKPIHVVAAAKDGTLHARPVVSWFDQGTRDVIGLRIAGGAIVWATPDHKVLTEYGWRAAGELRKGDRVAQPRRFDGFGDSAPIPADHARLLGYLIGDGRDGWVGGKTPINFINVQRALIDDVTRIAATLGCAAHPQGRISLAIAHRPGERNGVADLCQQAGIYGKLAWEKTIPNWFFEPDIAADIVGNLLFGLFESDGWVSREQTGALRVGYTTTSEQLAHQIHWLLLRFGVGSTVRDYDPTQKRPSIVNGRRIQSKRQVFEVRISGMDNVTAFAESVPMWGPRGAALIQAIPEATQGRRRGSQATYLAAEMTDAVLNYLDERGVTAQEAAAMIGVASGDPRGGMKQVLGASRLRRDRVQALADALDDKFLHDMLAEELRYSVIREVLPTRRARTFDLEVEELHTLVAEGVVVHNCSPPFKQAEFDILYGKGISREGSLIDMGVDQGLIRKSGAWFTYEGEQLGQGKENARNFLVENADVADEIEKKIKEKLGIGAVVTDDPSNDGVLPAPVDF
Description: Fluorescence Cell-Free Homogeneous Dose Retest to Identify Inhibitors of RecA-Intein Splicing Activity. [Related pubchem assays (depositor defined):AID2097, AID2223, AID489010, AID492950]. It is filed as functional.

Another experiment concerns INS1. The experiment is described as follows: INS-1E survival protection against cytokine death – cell-based, luminescence, retest, dose response (AID 449756).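 Also: cell death triggered by IL-1 beta plus TNF-alpha plus IFN-gamma mixture; protective hits raise ATP signal compared with cytokine alone wells.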 It is filed as functional. The settings on record: Rattus norvegicus.
The target of experiment [4] is Serine/threonine-protein phosphatase (Homo sapiens, UniProt Q9BPW0). The experiment is described as follows: inhibition of protein phosphatase 5 activity – biochemical, fluorescence, dose response (AID 2395).
Sequence of Serine/threonine-protein phosphatase (Q9BPW0 whole entry): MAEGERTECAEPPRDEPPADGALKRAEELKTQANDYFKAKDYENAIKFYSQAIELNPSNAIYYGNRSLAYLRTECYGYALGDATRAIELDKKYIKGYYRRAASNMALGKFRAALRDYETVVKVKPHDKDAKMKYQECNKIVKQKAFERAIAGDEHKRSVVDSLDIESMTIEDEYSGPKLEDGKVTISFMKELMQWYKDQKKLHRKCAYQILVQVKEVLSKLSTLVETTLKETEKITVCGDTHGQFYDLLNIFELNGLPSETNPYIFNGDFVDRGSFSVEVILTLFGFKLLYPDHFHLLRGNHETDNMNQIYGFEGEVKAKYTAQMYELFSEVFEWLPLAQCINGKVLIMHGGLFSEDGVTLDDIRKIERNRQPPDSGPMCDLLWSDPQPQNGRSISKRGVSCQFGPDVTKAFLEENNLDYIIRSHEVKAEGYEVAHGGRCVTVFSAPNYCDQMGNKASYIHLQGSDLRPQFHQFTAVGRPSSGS
The target in experiment [5] is Heat shock protein HSP 90-alpha (Homo sapiens, UniProt P07900). The experiment is described as follows: Luminescence-based dose response biochemical high throughput screening assay for inhibitors of the Heat Shock Protein 90 (HSP90). [Related pubchem assays: 1831 (Summary AID.), 1846 (Confirmation screen.), 1789 (Primary screen.)].
Experiment [6] concerns the target Photoreceptor-specific nuclear receptor (Homo sapiens, UniProt Q9Y5X4). In kind it is functional, cell-based.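 Also: CHO-S cells with Gal4-NCOR and VP16-NR2E3 two-hybrid luciferase reporter.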

Sequence of Photoreceptor-specific nuclear receptor (Q9Y5X4 whole entry, the tested form may be a part): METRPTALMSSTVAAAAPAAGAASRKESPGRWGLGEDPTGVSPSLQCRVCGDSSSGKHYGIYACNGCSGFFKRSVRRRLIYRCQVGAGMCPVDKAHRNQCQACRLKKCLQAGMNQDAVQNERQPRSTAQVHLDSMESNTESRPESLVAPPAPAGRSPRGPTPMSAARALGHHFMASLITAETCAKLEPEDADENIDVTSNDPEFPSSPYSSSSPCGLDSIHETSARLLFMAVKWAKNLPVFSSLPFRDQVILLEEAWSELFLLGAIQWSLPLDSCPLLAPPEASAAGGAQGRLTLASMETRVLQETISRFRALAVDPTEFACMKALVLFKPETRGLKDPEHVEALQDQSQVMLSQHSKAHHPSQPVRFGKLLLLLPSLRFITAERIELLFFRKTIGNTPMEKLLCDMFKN

`Cc1ccc(NC2=CC(=O)C(=O)c3ccccc32)cc1`: the EC50 (in general, the midpoint of the concentration-response curve) in [1] was 20.5 µM (active); in experiment [2], 7.04 µM (active); at Protein RecA, 0.999 µM (active). The concentration for half-maximal inhibition (IC50) (commonly the concentration that gives 50% inhibition) at Caspase-3 is 31 µM (active). The concentration at half-maximal activity (AC50) (commonly the midpoint of the concentration-response curve, whichever way the signal moves) in experiment [3] was 0.971 µM (active); with INS1 it was 2.63 µM (active). For the same compound, the half-maximal cytotoxic concentration (CC50) (in general, the concentration giving 50% cytotoxicity) with Vero is 11.4 µM (active).

On to `O=C(O)c1ccc(S(=O)(=O)/N=C2\C=C(Nc3ccccc3F)C(=O)c3ccccc32)cc1`, for which the concentration for half-maximal inhibition (IC50) was > 67 µM (not active) in [4], 0.638 µM (active) in experiment [5] and 12.2 µM (inactive) in experiment [6]. Moreover, the results for the EC50 (in experiment [2]; at Protein RecA) were > 260 µM (inconclusive) and 0.0663 µM (active), respectively. In addition, the AC50 was 0.146 µM (active) in [3] and 2.61 µM (active) in the experiment on INS1. Also, the CC50 with Vero was 26.4 µM (active).
